# Structures can show the parent of a compound that is named as a salt.
# How the values were obtained:
# [1] = Saturated solubility of terbinafine HCl in various solvents; type: physicochemical; settings: thermodynamic from solid, n = 3
# Description: In order to establish a suitable receiver fluid for use in permeation studies, the saturated solubility of terbinafine HCl at room temperature was determined in various solvents such as, water, phosphate buffered saline (PBS), PBS with 5% Tween-80 (PBS-T), citrate buffer and sodium phosphate buffer. The drug was added to each of the solvents until visual saturation was obtained and the mixtures were left at controlled temperature (19° C.) for 24 hours. The saturated drug solution was filtered and solubility of the drug was determined by UV spectrophotometer.
# [2] = Approximate visual solubility in receiver fluids; type: physicochemical; settings: aqueous with cosolvent or surfactant or cyclodextrin, Approximate visual solubility
# Description: The visual solubility of each receiver fluid shown in Table 3 below was initially tested for ketoconazole (BUFA B.V.) and ciclopirox (PCAS Finland Oy). Additional solubility testing was then conducted for terbinafine hydrochloride (QueMaCo Ltd.), amorolfine hydrochloride (Inter-Chemical Ltd.) and itraconazole EP (Shamrock, UK) and the results are shown in Table 3.
# The solubility of terbinafine hydrochloride, fluconazole, itraconazole and amorolfine hydrochloride was determined in PBS and 5% Tween 80 and the results are summarized in Table 4.
# [3] = Permeation through hoof membrane in Franz diffusion cell, passive versus iontophoretic; type: in vitro ADME, bovine
# Description: The permeation experiments were conducted to optimize the parameters for iontophoretically-assisted terbinafine HCl into the hoof membrane. In these experiments bovine hoof membranes (˜0.250 mm thickness) were used as a model for human nail plates. The prehydrated (in water for 60 min) hoof membrane was sandwiched between the donor and receptor compartments of Franz diffusion cell (FDC). The receptor compartment was filled with receiver fluid (5 ml of PBS-5% Tween 80 (T80), water or water-T80 as indicated) and the set up was visually examined for any leaks by inverting the FDC. Two ml of drug solutions (5-10 mg/ml) or suspensions (5-10 mg/ml) were placed in the donor compartment of the Franz diffusion cell. […] Aliquots (50 μl) of the receptor phase were taken every 15 minutes for the first two hours and every hour subsequently for 8 h. A last aliquot was taken at 24 h. Some experiments were conducted for longer in which case aliquots were taken daily. […] Control passive experiments were conducted in the same way except for the application of electric current. Data were expressed as means ±standard deviations. All experiments were performed in triplicate. Drug permeation was measured as described above for up to 24 hours (n=3). For iontophoretic permeation, current density of 1 mA cm^2 was applied for 1 hr using carbon electrodes. […]
# [4] = Permeation through and loading in human nail, Franz diffusion cell; type: in vitro ADME
# Description: Permeation experiments were conducted using human nails to further validate iontophoretic delivery. In these experiments intact full thickness whole cadaver finger nail plates (˜0.5-0.7 mm thickness) were trimmed to appropriate disks and used. Prehydrated (in saline for 60 min) nail disks were sandwiched between the donor and receptor compartments of Franz diffusion cell (FDC) using a nail adaptor to conform to the curvature of the nail. Terbinafine hydrochloride (10 mg/mL) in water and Tween80 was used in the donor compartment, and acidified water used in the receptor. Current density of 0.5 mA/cm^2 was applied for 1 hr after which the receptor levels were measured for permeation of terbinafine hydrochloride through the nail using similar methods as described in Example 3B. Additionally, nail disks were analyzed (after 1 hr of iontophoresis or passive delivery) for drug in the nail using similar extraction methods as described as follows. […]
# Permeation experiments were conducted using human nails as described in Example 4 but the effect of current duration was investigated. Current density of 0.5 mA/cm^2 was applied for either 15, 30, 45, or 60 minutes and the receptor levels analyzed for amount of terbinafine hydrochloride that permeated through the nail (μg/cm^2) immediately afterwards and compared to passively delivered nails.
# [5] = type: in vitro ADME; settings: 4 %, pH 3
# Description: Nails soaked in normal saline for one hour were mounted on a nail adapter and sandwiched between the two chambers of the FDC. […] Anodal iontophoresis was carried out at 0.5 mA/cm^2 for 1 hr using a custom made constant DC power supply. For comparison, passive delivery of the same formulation was performed for 1 hr. For drug release studies, nails loaded with drug were washed to remove the surface drug and were mounted on FDCs. The receiver compartment was filled with pH 3 water. The donor chamber was empty but was covered with parafilm. The receiver compartment medium was sampled daily and the amount of drug released from the drug loaded nails was measured until the cumulative release attained a plateau. Drug delivered into the nail via iontophoresis released terbinafine HCl in a sustained release fashion over approximately 3 weeks at levels far greater than passively loaded nails which reached a plateau only after a few days (FIG. 11). The amount of drug released from iontophoretically loaded nails represented approximately 47% of the initial drug loaded. Undelivered drug was confined to the upper layers of the nail and was hypothesized to be either entrapped or keratin bound. […] Actual release may be slower in vivo since the nail is not in contact with a fluid reservoir with enhanced drug solubility and infinite sink conditions.
smiles,measurement,setting,value
"CN(C/C=C/C#CC(C)(C)C)Cc1cccc2ccccc12 [terbinafine HCl, (E)-N-(6,6-dimethyl-2-hepten-4-ynyl)-N-methyl-1-naphthylmethamine hydrochloride]",solubility at 24 h,"[1]; aqueous buffer, Citrate buffer, pH 5, 19° C.",1810 µg/mL
same,solubility at 24 h,"[1]; aqueous buffer, PBS, pH 7.4, 19° C.",1320 µg/mL
same,solubility at 24 h,"[1]; aqueous with cosolvent or surfactant or cyclodextrin, PBS-T (PBS with 5% Tween-80), pH 6.8, 19° C.",6020 µg/mL
same,solubility at 24 h,"[1]; Distilled water, pH 5.8, 19° C.",6370 µg/mL
same,solubility,[2],> 5000 µg/mL
same,time at which iontophoretic drug permeation leveled off,"[3]; bovine, 10 mg/ml",about 8 hrs
same,drug concentration in the receptor phase,"[3]; passive delivery, at 24 h, water-T80 and 10 mg/ml drug solution, average of replicates",20 ng/mL
same,"permeation through the nail and loading in the nail, iontophoresis versus passive","[4]; 10 mg/mL in water and Tween80, 0.5 mA/cm^2 for 1 hr",increases permeation through the nail and loading in the nail compared to passive delivery
same,iontophoretic permeation through the nail versus passive,"[4]; 0.5 mA/cm^2 for 15, 30, 45, or 60 minutes",greater than passively delivered drug for all current durations tested
same,amount of drug released as share of the initial drug loaded,[5],approximately 47%
same,duration of sustained release from iontophoretically loaded nails,[5],approximately 3 weeks

# Source: patent US20080261986A1, “PHARMACEUTICAL FORMULATIONS FOR IONTOPHORETIC DELIVERY OF AN ANTI-FUNGAL DRUG” (priority 2007, published 2008)
